How the values were obtained:
[1] = acute toxicity, subcutaneous injection; type: in vivo; conditions: 1000 mg/kg and 2000 mg/kg, injected subcutaneously, Swiss mice
Text: The acute toxicity of the compound in laboratory animals has been evaluated.

Gram-positive bacteria = experiment: minimum inhibitory concentration (MIC) determination; type: cell-based; conditions: wide range of Gram-positive bacteria including enterococci and resistant clinical isolates; MIC values are in Table II (image)
[2] = system: Staphylococcus aureus E 710 (Methicillin resistant); experiment: in vivo antibacterial protection study in experimentally infected mice; conditions: laboratory mice experimentally infected with Staphylococcus aureus E 710 (Methicillin resistant)
Text: "In vivo" antibacterial protection studies

[3] = acute toxicity, intravenous injection, rats; type: in vivo; conditions: Wistar rats
[4] = acute toxicity, intravenous injection, mice; type: in vivo; conditions: Swiss white mice
[5] = i.v., end of the 14 day follow-up period

Molecule | finding at the site of injection [1] | activity against Gram-positive bacteria (Gram-positive bacteria) | activity in the in vivo system [2] | acute toxicity [1] | macroscopic examination on dissection [3, 5] | LD₅₀ ([3]; intravenous injection (i.v.)) | macroscopic examination on dissection [4, 5] | LD₅₀ ([4]; intravenous injection (i.v.), 20160 min)
CN[C@H](CC(C)C)C(=O)N[C@H]1C(=O)N[C@@H](CC(N)=O)C(=O)N[C@H]2C(=O)N[C@H]3C(=O)N[C@H](C(=O)N[C@H](C(=O)O)c4cc(O)cc(O)c4-c4cc3ccc4O)[C@H](O)c3ccc(c(Cl)c3)Oc3cc2cc(c3O[C@@H]2O[C@H](CO)[C@@H](O)[C@H](O)[C@H]2O[C@H]2C[C@](C)(N)[C@H](O)[C@H](C)O2)Oc2ccc(cc2Cl)[C@H]1O [vancomycin, reference compound] | tissue necrosis was seen at the site of injection | – | – | – | – | – | – | –
Decaplanin | no abnormalities were observed | displays activity | good activity | no acute toxicity was observed | no morphological changes | greater than 2,500 mg/kg | no morphological changes | greater than 3000 mg/kg

— patent publication EP0356894A1, “A novel glycopeptide antibiotic Decaplanin, a process for its production and its use as medicament” (priority 1988, dated 1990)
